In ChEMBL document CHEMBL1201862, “PubChem BioAssay data set” (2004):
Activity calls are given as the source filed them.

What was measured:
[1] = Luminescence Cell-Based Dose Confirmation HTS to Identify Activators of 5'UTR Stem-Loop Driven Alpha-Synuclein mRNA Translation in H4 Neuroglioblastoma Cells. [Related pubchem assays: 1829 (Project Summary), 1814 (Primary HTS)]; type: functional
[2] = tested on: H4; test: Luminescence Cell-Based Dose Response HTS to Identify Activators of 5'UTR Stem-Loop Driven Prion Protein mRNA Translation in H4 Neuroglioblastoma Cells. [Related pubchem assays: 1829 (Project Summary), 1814 (Primary HTS)]; type: functional; conditions: Homo sapiens
[3] = Luminescence Cell-Based Dose Response HTS to Identify Activators of Luciferase Translation or Activity in H4 […] Cells. [Related pubchem assays: 1829 (Project Summary), 1814 (Primary HTS)]; type: functional
[4] = target: T1, Polyadenylate-binding protein 1 (Homo sapiens, UniProt P11940); test: PABP1 MLLE–PAM2 binding inhibitor potency, dose response, biochemical, fluorescence polarization, FITC-PAM2 peptide (AID 602259); type: functional; conditions: read-out: IC50_Mean
[5] = target: T1, Polyadenylate-binding protein 1; test: PABP1 MLLE–PAM2 interaction inhibitors, dose response, miRNA deadenylation inhibitor project, biochemical, fluorescence polarization, Cy5-PAM2 peptide, secondary (AID 602260); type: functional; conditions: read-out: IC50_Mean
[6] = target: T2, Corticotropin-releasing factor receptor 2/Corticotropin-releasing factor-binding protein (Homo sapiens, UniProt P24387+Q13324); test: Dose Response confirmation of uHTS hits for small molecule antagonists of the CRF-binding protein and CRF-R2 receptor complex.; type: functional; conditions: read-out: IC50_Mean
T2 sequence (Q13324 whole entry): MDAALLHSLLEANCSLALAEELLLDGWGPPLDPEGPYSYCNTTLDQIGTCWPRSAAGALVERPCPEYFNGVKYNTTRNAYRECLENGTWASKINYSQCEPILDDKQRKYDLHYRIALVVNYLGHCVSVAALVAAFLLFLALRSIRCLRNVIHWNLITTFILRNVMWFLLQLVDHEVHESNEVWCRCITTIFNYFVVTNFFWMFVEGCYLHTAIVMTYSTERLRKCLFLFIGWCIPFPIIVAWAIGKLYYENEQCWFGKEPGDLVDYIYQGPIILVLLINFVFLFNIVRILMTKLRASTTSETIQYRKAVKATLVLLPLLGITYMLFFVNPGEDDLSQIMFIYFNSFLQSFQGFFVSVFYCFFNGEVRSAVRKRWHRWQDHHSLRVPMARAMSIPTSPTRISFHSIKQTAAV
T2 sequence (P24387 whole entry): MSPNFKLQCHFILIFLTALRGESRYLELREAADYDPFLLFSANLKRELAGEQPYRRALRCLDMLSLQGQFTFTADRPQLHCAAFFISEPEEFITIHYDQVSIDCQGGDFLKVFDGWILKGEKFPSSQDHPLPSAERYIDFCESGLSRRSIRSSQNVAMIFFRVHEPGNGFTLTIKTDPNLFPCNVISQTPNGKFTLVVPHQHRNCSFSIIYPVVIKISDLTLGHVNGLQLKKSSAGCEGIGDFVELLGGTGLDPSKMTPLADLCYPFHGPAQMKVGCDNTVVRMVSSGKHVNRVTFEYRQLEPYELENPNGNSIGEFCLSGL

[7] = target: T2, Corticotropin-releasing factor receptor 2/Corticotropin-releasing factor-binding protein; test: activators of CRF receptor 2 with binding protein – uHTS hits, confirmation (AID 602473); type: functional; conditions: read-out: EC50_Mean
[8] = tested on: H9c2; test: cells; type: functional, cell-based; conditions: Rattus norvegicus, H9c2, Myocardium;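 further: confirmatory concentration-response retest of ultra-high-throughput screening hits for modulation of myocardial damage; cell death induced by hydrogen peroxide oxidative stress; compound pretreatment for 60 min then peroxide exposure for 2 h; potency is for protecting the cells against peroxide damage rather than for killing them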
[9] = target: T3, Protein RecA (Mycobacterium tuberculosis, UniProt P9WHJ3); test: Fluorescence Cell-Free Homogeneous Dose Retest to Identify Inhibitors of RecA-Intein Splicing Activity. [Related pubchem assays (depositor defined):AID2097, AID2223, AID489010, AID492950]; type: functional
T3 sequence (P9WHJ3 whole entry): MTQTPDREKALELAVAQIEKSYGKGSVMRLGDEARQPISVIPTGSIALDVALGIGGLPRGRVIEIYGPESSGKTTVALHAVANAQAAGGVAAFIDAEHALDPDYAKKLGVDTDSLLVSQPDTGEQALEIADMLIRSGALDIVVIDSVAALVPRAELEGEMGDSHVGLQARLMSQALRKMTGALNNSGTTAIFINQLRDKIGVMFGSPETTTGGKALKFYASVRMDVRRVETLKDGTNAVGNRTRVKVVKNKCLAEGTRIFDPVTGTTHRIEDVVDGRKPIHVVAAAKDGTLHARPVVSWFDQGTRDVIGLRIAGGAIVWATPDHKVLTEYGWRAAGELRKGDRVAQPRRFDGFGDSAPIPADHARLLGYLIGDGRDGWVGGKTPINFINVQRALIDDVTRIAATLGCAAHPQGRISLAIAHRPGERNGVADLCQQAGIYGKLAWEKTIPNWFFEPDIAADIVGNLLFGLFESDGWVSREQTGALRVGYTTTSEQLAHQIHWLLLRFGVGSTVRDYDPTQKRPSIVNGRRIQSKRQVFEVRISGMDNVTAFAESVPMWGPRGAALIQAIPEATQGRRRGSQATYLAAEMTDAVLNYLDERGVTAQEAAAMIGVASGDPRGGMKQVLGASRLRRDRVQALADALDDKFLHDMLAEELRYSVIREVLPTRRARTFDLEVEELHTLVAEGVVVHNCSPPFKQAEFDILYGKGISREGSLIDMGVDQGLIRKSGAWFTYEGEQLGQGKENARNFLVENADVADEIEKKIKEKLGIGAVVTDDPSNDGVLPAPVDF

[10] = target: T4, Heat shock factor protein 1 (Mus musculus, UniProt P38532); test: HSF1 potentiators in luciferase reporter cells, confirmation, cell-based, NIH3T3, luminescence, dose retest (AID 435004); type: functional;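 further: stress induced by proteasome inhibitor MG132 added 30 min after compound; luciferase reporter driven by HSF1 response element in NIH3T3 cells; actives raise luminescence as potentiators of the MG132 stress response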
T4 sequence (P38532 whole entry): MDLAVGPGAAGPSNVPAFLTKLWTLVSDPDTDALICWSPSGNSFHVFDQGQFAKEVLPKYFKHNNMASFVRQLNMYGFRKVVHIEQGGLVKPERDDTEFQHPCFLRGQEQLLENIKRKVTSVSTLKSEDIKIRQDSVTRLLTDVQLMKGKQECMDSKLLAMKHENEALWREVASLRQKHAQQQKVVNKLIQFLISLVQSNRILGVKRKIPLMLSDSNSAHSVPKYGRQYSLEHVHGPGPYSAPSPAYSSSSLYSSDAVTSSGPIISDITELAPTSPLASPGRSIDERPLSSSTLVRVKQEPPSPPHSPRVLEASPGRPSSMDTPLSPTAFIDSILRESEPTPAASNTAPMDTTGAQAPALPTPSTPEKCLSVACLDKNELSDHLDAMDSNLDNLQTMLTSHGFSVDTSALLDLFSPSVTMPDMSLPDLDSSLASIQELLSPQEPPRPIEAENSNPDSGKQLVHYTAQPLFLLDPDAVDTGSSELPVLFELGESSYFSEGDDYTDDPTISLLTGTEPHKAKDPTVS

[11] = target: Paired box protein Pax-8 (Homo sapiens, UniProt Q06710); test: inhibitors of PAX8-driven TPO luciferase reporter, dose response, RMG-I cells, cherry-pick (AID 687027); type: functional, cell-based;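 further: luciferase reporter driven by Pax8 target thyroperoxidase promoter measured by SteadyGlo luminescence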
Sequence of Paired box protein Pax-8 (Q06710 whole entry): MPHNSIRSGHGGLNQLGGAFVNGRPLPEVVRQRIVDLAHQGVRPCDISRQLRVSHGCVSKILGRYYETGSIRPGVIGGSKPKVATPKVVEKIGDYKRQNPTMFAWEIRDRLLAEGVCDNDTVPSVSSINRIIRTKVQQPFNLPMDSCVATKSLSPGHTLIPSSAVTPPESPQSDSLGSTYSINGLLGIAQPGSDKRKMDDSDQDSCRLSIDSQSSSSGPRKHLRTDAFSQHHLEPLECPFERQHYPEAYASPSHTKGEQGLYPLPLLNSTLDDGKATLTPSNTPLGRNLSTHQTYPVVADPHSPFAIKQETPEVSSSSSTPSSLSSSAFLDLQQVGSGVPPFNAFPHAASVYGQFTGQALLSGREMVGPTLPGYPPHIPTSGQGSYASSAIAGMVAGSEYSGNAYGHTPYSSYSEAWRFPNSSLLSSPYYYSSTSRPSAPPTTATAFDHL

T1 sequence (P11940 whole entry): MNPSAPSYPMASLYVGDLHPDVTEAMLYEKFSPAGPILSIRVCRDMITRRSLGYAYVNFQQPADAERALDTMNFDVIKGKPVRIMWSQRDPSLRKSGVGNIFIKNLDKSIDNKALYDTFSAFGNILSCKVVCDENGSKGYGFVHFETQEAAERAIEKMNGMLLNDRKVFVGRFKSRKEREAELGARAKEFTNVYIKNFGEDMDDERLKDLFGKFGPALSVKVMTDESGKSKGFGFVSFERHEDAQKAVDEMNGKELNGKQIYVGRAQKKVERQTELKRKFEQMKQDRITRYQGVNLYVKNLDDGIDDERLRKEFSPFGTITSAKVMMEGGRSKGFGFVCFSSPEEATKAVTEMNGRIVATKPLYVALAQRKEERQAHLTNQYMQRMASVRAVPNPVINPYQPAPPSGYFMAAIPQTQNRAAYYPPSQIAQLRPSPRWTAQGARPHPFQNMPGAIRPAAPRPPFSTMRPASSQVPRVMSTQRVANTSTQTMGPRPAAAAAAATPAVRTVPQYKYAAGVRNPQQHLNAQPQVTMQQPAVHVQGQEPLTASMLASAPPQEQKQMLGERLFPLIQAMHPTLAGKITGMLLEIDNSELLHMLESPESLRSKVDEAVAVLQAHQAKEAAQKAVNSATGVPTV

Compound: Fc1ccc(N2Cc3ccsc3C=N2)cc1
- EC50 [1]: 37.1 µM (active)
- EC50 [2]: > 120 µM (not active)
- EC50 [3]: 23.9 µM (active)

Compound: CCOC(=O)c1sc(=S)n(C)c1NC(=O)c1ccccc1Cl
- IC50 [4]: > 66 µM (inactive)
- IC50 [5]: > 66 µM (inactive)

Compound: Cc1ccc2nc(N3C(=O)C(O)=C(C(=O)c4ccc(C)o4)C3c3cccc(O)c3)sc2c1 (stereo unspecified)
- IC50 [6]: 7.83 µM (active)
- EC50 [7]: > 53 µM (inactive)

Compound: C#CCNC(=O)C1=C[C@H](c2ccc3c(c2)OCO3)[C@@H](CCCO)[C@H](OCC)O1
- IC50 [6]: > 47.1 µM (inactive)
- EC50 [7]: > 53 µM (inactive)

Compound: CC1(C)CC2=NC(SCC(N)=O)=C(C#N)C3(CCCCC3)C2=C(O)C1
- IC50 [4]: > 66 µM (inactive)
- IC50 [5]: > 66 µM (inactive)

Compound: c1coc(CSc2ncnc3c2oc2ccccc23)c1
- EC50 [1]: 3.52 µM (active)
- EC50 [2]: 6.38 µM (active)
- EC50 [3]: 4.94 µM (active)

Compound: Cn1c(SCC(=O)c2ccc3c(c2)OCCO3)nnc1C(F)(F)F
- IC50 [6]: > 47.1 µM (inactive)
- EC50 [7]: > 53 µM (inactive)

Compound: O=c1ccc2cc(S(=O)(=O)NCc3ccccc3)ccc2[nH]1
- IC50 [6]: > 47.1 µM (inactive)
- EC50 [7]: > 53 µM (inactive)

Compound: c1ccc(-c2noc(C34CC5CC(CC(C5)C3)C4)n2)nc1
- EC50 [1]: 0.122 µM (active)
- EC50 [2]: 48 µM (active)
- EC50 [3]: 30.3 µM (active)

Compound: CC(=O)c1ccc(N2CCN(C(=O)CCS(=O)(=O)c3ccc4c(c3)CCN4C(C)=O)CC2)cc1
- IC50 [6]: > 47.1 µM (inactive)
- EC50 [7]: > 53 µM (inactive)

Compound: COc1ccccc1C(=O)NC(CCSC)C(=O)NC1CCCCCC1 (stereo unspecified)
- IC50 [6]: > 47.1 µM (inactive)
- EC50 [7]: > 53 µM (inactive)

Compound: Cc1ccc(C(=O)CSc2nc(O)c3ccccc3n2)cc1
- IC50 [8]: > 79 µM (inactive)

Compound: COc1ccc(OC)c(NC(=O)CSC2=NCCS2)c1
- IC50 [4]: > 66 µM (inactive)
- IC50 [5]: > 66 µM (inactive)

Compound: CCC(=O)Nc1ccc(-c2ccc(N3CCN(C)CC3)nn2)cc1
- EC50 [1]: > 120 µM (not active)
- EC50 [2]: 19.2 µM (active)
- EC50 [3]: 15.5 µM (active)

Compound: Cc1cccc(C)c1N=C(S)Nc1ccc(Cl)c(Cl)c1
- IC50 [4]: > 66 µM (inactive)
- IC50 [5]: > 66 µM (inactive)

Compound: Cc1cc2cc(CNC(=O)c3ccc(Br)o3)ccc2n1C
- IC50 [4]: > 66 µM (inactive)
- IC50 [5]: > 66 µM (inactive)

Compound: O=C(/C=C/c1ccco1)N1CCN(c2ncccn2)CC1
- IC50 [4]: > 66 µM (inactive)
- IC50 [5]: > 66 µM (inactive)

Compound: O=C1NC2=C(C(=O)CCC2)C(c2ccccc2[N+](=O)[O-])N1 (stereo unspecified)
- IC50 [4]: > 66 µM (inactive)
- IC50 [5]: > 66 µM (inactive)

Compound: CCCC1c2ccc(C)n2CCN1C(=O)Nc1ccccc1Cl (stereo unspecified)
- EC50 [1]: 23 µM (active)
- EC50 [2]: > 120 µM (not active)
- EC50 [3]: 14.2 µM (active)

Compound: CCCCCCCOC(=O)c1ccc(OC(=O)c2cccnc2)cc1
- EC50 [9]: > 380 µM (inconclusive)

Compound: COc1ccc(CCNc2nc(-c3cccnc3)nc3ccccc23)cc1OC
- IC50 [8]: > 79 µM (inactive)

Compound: O=C(Nc1ccc(C(=O)N2CCOCC2)cc1)c1cnn2c(C(F)F)cc(-c3ccccc3)nc12
- IC50 [8]: > 79 µM (inactive)
- EC50 [10]: > 260 µM (inactive)

Compound: O=c1c(-c2ccc3c(c2)OCCO3)coc2c(CN3CCOCC3)c(O)ccc12
- EC50 [1]: 42.3 µM (active)
- EC50 [2]: > 120 µM (not active)
- EC50 [3]: 17.7 µM (active)

Compound: O=C(COC(=O)Cn1[nH]c(=O)c2ccccc2c1=O)NNC(=O)c1ccccc1
- IC50 [8]: > 79 µM (inactive)

Compound: O=C(NNC(=S)Nc1ccc(Br)cc1Cl)c1ccncc1
- IC50 [4]: > 66 µM (inactive)
- IC50 [5]: > 66 µM (inactive)

Compound: Cc1cc2c(NS(=O)(=O)c3ccc(F)cc3)cccc2nn1
- IC50 [6]: > 47.1 µM (inactive)
- EC50 [7]: > 53 µM (inactive)

Compound: O=C(C[C@H]1C/C=C\CC[C@H](Cc2ccc(F)cc2)C(=O)O[C@H](c2ccccc2)CNC1=O)N[C@H](CO)Cc1ccccc1
- IC50 [8]: 25.3 µM (active)

Compound: COc1ccc(S(=O)(=O)N(C)C[C@H]2Oc3ccc(NC(=O)Nc4ccc(C(F)(F)F)cc4)cc3C(=O)N([C@H](C)CO)C[C@@H]2C)cc1
- AC50 [11]: 8.69 µM (active)

Compound: O=C(Nc1ccccc1)c1nc[nH]c1C(=O)NCCN(CCNC(=O)c1[nH]cnc1C(=O)Nc1ccccc1)CCNC(=O)c1[nH]cnc1C(=O)Nc1ccccc1
- IC50 [6]: > 47.1 µM (inactive)
- EC50 [7]: > 53 µM (inactive)

Compound: Cc1ccc(C)c(C(=O)COC(=O)Cn2[nH]c(=O)c3ccccc3c2=O)c1
- IC50 [8]: 63.5 µM (inactive)

Compound: Cc1cc(NC(=O)COC(=O)Cn2[nH]c(=O)c3ccccc3c2=O)c([N+](=O)[O-])cc1C
- IC50 [8]: 31.7 µM (inactive)

Compound: CCOc1ccc(C(=O)NNC(=O)CCNC(=O)c2ccco2)cc1OC
- IC50 [6]: > 47.1 µM (inactive)
- EC50 [7]: > 53 µM (inactive)

Compound: COc1cc(/C=N/NC(=O)c2ccncc2)ccc1OC(=O)c1ccccc1Cl
- IC50 [8]: > 79 µM (inactive)

Compound: CCOC(=O)c1ccc(-c2ccc3ncnc(NCc4csc(C)n4)c3c2)o1
- IC50 [8]: > 79 µM (inactive)

Compound: C[C@H](CO)N1C[C@H](C)[C@H](CN(C)S(=O)(=O)c2ccc(Cl)cc2)OCCCC[C@H](C)Oc2ccc(NS(=O)(=O)c3ccc(F)cc3)cc2C1=O
- AC50 [11]: 9.43 µM (active)

Compound: C[C@@H]1CCCCO[C@@H](CN(C)Cc2ccc(Cl)c(Cl)c2)[C@H](C)CN([C@H](C)CO)C(=O)c2cc(NC(=O)Nc3ccccc3)ccc2O1
- AC50 [11]: 12.5 µM (active)
